Measurements published in patent US20230330093A1, “APPLICATION OF NITROGEN-CONTAINING SATURATED HETEROCYCLIC COMPOUND” (SHANGHAI PHARMACEUTICALS HOLDING CO., LTD., priority 2020, published 2023).
Values joined by “and” are separate entries in the source; they are usually repeats but may differ in a detail not shown here. Equal entries are not always repeated.

System: rhesus monkeys with spontaneous chronic kidney disease
Experiment: Effect on serum K+, 8-week administration
Details: 5mg/kg (n = 6)
Procedure: In the trial, animals were brought in three stages. In the first stage, there were two groups: 3 animals (No. 257, No. 4721, No. 287) in a group with 5 mg/kg of the malate of compound of formula I, and 2 animals (No. 1029, No. 4713) in the placebo group. […] In the third stage, there were two groups: 5 animals (No. 4829, No. 6501, No. 287, No. 4721, No. 2091) in a group with 2 mg/kg of the malate of compound of formula I, and 5 animals (No. 1567, No. 4861, No. 5453, No. 6653, No. 5073) in a group with 1 mg/kg of the malate of compound of formula I.
Serum potassium, twice before administration, once every 2 weeks during the administration period;
Blood biochemical and urine index detection equipment: Roche cobas6000 analyzer series C501 module detection. ELISA kit was used for NT-proBNP test.

COC(=O)NCCCn1nc(C(C)N(C(=O)C2CNCCO2)C2CC2)c2ccc(C)nc21.O=C(O)CC(O)C(=O)O (stereo not drawn) [malate of compound of Formula 1]
K^+ (2 weeks, Mean ± SD): 4.98 ± 0.73 mmol/L | K^+ (2 weeks, individual animals): 4.91 mmol/L and 4.55 mmol/L and 6.07 mmol/L and 5.37 mmol/L and 5.05 mmol/L and 3.93 mmol/L | K^+ (4 weeks, Mean ± SD): 4.49 ± 0.62 mmol/L | K^+ (4 weeks, individual animals): 4.33 mmol/L and 4.55 mmol/L and 5.46 mmol/L and 4.50 mmol/L and 4.61 mmol/L and 3.51 mmol/L | K^+ (6 weeks, Mean ± SD): 4.57 ± 0.66 mmol/L | K^+ (6 weeks, individual animals): 4.53 mmol/L and 4.16 mmol/L and 4.77 mmol/L and 4.76 mmol/L and 5.58 mmol/L and 3.60 mmol/L | K^+ (8 weeks, Mean ± SD): 4.49 ± 0.70 mmol/L | K^+ (8 weeks, individual animals): 4.26 mmol/L and 4.64 mmol/L and 4.49 mmol/L and 5.28 mmol/L and 5.00 mmol/L and 3.26 mmol/L | K^+ (Baseline 1, Mean ± SD): 4.89 ± 0.35 mmol/L | K^+ (Baseline 1, individual animals): 4.78 mmol/L and 4.54 mmol/L and 4.93 mmol/L and 5.41 mmol/L and 5.16 mmol/L and 4.52 mmol/L | K^+ (Baseline 2, Mean ± SD): 4.81 ± 0.48 mmol/L | K^+ (Baseline 2, individual animals): 5.43 mmol/L and 4.74 mmol/L and 4.03 mmol/L and 5.20 mmol/L and 4.75 mmol/L and 4.72 mmol/L
